What was measured:
[1] = target: Ba/F3 EML4-ALK v1 I1171N/D1203N (Homo sapiens (Human), UniProt Q9HC35+Q9UM73, D1203N/I1171N); experiment: Ba/F3 cell proliferation assay, EML4-ALK v1 I1171N/D1203N; type: cell-based; conditions: for IC50: Ba/F3 stable cells, 72 hours, CellTiter-Glo; for ETV6-TRKB / EML4-ALK v1 I1171N/D1203N: TRKB selectivity, ratio of Ba/F3 IC50 values
Summary of the method: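 Viability read by CellTiter-Glo luminescence after 72 h exposure to a 3-fold compound dilution series, with IC50 from four-parameter logistic regression. Cells were Ba/F3 rendered IL-3-independent through retroviral expression of EML4-ALK v1 I1171N/D1203N, puromycin-selected.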

[2] = target: Ba/F3 ETV6-TRKB (Homo sapiens, UniProt Q16620); experiment: Ba/F3 cell proliferation assay, ETV6-TRKB; type: cell-based; conditions: Ba/F3 stable cells, 72 hours, CellTiter-Glo; read-out: ETV6-TRKB IC50
Summary of the method: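 Growth inhibition after 72 h compound exposure (3-fold series) was measured by CellTiter-Glo in IL-3-independent Ba/F3 cells stably expressing ETV6-TRKB. A four-parameter logistic fit of percent inhibition versus concentration gave IC50.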

[3] = target: TRKB-wt (Homo sapiens (Human), UniProt Q16620); experiment: Biochemical kinase assay, TRKB-wt; conditions: apparent inhibitory constant, kinase domain, Morrison equation; read-out: TRKB-wt Ki^app
Protocol: First, 250 nL of compound dissolved in DMSO (100-fold of the desired concentration) was dispensed into a 384-well plate. A 12.5 μL substrate solution containing ATP (2 mM) and fluorogenic phosphorylation substrate AQT0101 ([…] for ALK and ROS, AssayQuant) or AQT0104 (26 μM for TRKB, AssayQuant) in buffer (50 mM HEPES pH 7.5, […], 0.5 mM EGTA, 10 mM MgCl2) was added and mixed thoroughly. Then, a 12.5 μL kinase solution containing ALK (1.5 nM, Carna, 08-518), ALK I1171N/D1203N (4 nM, SignalChem, custom-made), ROS1 (0.6 nM, Carma, 08-163), ROS1-G2032R (0.5 nM, SignalChem, R14-121BG), or TRKB-wt (1.5 nM, SignalChem, N17-11G) kinase domains in buffer ([…] pH 7.5, 0.01% Brij-[…], 0.4 mg/mL BSA, 0.5 mM EGTA, and 10 mM MgCl2) was added and mixed thoroughly. The plate was sealed and read by SpectraMax Paradigm at λ=485 nm every 2 minutes for 120 minutes at 30° C. Initial rates of reaction (v) were calculated from the change in fluorescence intensity over time during the initial, linear portion of the reaction. Finally, apparent inhibitory constants (Ki^app) were determined from regression of v and I (inhibitor concentration) to Morrison Equation (E=enzyme concentration): […]
Compound potency can be interpreted by binning Ki^app values against the targets: bin A for high potency, Ki^app<50 nM; bin B for medium potency, 50 nM≤Ki^app<500 nM; and bin C for low potency, Ki^app≥500 nM. […] “nd” means not determined.

[4] = target: Ba/F3 EML4-ALK v1 I1171N (Homo sapiens (Human), UniProt Q9HC35+Q9UM73, I1171N); experiment: Ba/F3 cell proliferation assay, EML4-ALK v1 I1171N; type: cell-based; conditions: for IC50: Ba/F3 stable cells, 72 hours, CellTiter-Glo; for ETV6-TRKB / EML4-ALK v1 I1171N: TRKB selectivity, ratio of Ba/F3 IC50 values
Excerpt: Genes encoding EML4-ALK v1 (variant 1), EML4-ALK v1 G1202R, EML4-ALK v1 I1171IN, EML4-ALK v1 D1203N, EML4-ALK v1 I1171N/D1203N, and ETV6-TRKB were synthesized at GeneRay, cloned into the retroviral construct pMSCV-puro (Biovector), and packaged into retroviral particles. The virus was used to infect Ba/F3 cells (RIKEN) at multiplicity of infection=1 for 1 day. Infected cells were rescued in media (RPMI-1640 with 10% fetal bovine serum and 1% streptomycin and penicillin) supplemented with mouse IL-3 (10 ng/mL) for 2 days, and stable cell lines were selected by IL-3 withdrawal and puromycin (0.8 μg/mL) for 7 days. Monoclones were selected by single-cell dilution in IL-3-free medium containing puromycin (0.8 μg/mL). Transformation of desired genes was confirmed by Sanger sequencing and western blot using the following antibodies: ALK (CST #3633) and pan-TRK (Abcam #76291).
Stable cells were plated in a 384-well plate. Test compounds were then added in a 3-fold dilution series and incubated for 72 hours. CellTiter-Glo reagent (Promega) was added. Luminescence was measured on a plate reader. Half-maximal inhibitory concentration (ICso) was calculated from percent inhibition and inhibitor concentration using four-parameter logistic regression. Compound potency can be interpreted by binning IC50 values: bin A for high potency, 0.1 nM IC50<50 nM; bin B for medium potency, 50 nM<IC50<500 nM; and bin C for low potency, IC50>500 nM. […] Exemplary data is given in Table 4 (nd is not determined).
Ba/F3 proliferation is driven by the transduced oncogenes in the same way that cancer cell proliferation in humans is driven by the expression of equivalent oncogenes.
TRKB selectivity was calculated by dividing a compound's TRKB potency by its primary target potency (e.g., ETV6-TRKB IC50/EML4-ALK v1 IC50). Compound selectivity can be interpreted by binning ratio values: bin A for very high selectivity, ratio≥30-fold; bin B for high selectivity, ratio≥10-fold but<30; bin C for moderate selectivity, ratio≥1 but<10; and bin D for low selectivity, ratio<1. […] (nd=not determined).

Sequence of Ba/F3 EML4-ALK v1 I1171N (Q9UM73 other isoform, or with tags, fused parts or gaps I1171N): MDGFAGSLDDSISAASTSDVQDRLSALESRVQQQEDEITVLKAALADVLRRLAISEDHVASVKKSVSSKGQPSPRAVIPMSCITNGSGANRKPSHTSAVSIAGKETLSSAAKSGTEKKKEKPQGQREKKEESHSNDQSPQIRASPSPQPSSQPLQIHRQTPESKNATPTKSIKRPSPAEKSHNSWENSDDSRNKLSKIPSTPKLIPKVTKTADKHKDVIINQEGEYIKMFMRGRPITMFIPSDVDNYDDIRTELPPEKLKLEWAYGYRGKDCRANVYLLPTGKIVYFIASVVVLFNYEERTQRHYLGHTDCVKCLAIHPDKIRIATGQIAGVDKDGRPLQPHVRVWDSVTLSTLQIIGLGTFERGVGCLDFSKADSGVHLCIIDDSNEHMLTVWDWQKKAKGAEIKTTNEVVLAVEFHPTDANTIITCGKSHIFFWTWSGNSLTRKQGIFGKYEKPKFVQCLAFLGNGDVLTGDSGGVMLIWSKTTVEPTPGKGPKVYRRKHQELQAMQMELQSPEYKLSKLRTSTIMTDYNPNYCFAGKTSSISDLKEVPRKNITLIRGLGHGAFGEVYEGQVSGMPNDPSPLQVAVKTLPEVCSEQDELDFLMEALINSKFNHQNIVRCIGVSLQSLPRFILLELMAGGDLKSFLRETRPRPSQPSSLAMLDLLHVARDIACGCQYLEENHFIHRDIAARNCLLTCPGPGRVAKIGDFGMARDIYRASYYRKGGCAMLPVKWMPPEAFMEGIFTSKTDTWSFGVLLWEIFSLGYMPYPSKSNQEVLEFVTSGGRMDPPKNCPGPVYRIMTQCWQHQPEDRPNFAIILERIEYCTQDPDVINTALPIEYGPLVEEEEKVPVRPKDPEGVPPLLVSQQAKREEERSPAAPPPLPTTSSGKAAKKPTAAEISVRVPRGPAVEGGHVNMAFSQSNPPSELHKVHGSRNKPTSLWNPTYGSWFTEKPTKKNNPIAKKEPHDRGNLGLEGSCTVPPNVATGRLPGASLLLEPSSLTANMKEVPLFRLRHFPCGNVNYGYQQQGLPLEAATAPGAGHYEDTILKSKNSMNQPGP
Sequence of Ba/F3 EML4-ALK v1 I1171N/D1203N (Q9UM73 other isoform, or with tags, fused parts or gaps I1171N/D1203N): as the sequence (Q9UM73 other isoform, or with tags, fused parts or gaps I1171N) above, with D642N counted along it
Sequence of Ba/F3 ETV6-TRKB (Q16620 32-822 limits assumed, change not shown): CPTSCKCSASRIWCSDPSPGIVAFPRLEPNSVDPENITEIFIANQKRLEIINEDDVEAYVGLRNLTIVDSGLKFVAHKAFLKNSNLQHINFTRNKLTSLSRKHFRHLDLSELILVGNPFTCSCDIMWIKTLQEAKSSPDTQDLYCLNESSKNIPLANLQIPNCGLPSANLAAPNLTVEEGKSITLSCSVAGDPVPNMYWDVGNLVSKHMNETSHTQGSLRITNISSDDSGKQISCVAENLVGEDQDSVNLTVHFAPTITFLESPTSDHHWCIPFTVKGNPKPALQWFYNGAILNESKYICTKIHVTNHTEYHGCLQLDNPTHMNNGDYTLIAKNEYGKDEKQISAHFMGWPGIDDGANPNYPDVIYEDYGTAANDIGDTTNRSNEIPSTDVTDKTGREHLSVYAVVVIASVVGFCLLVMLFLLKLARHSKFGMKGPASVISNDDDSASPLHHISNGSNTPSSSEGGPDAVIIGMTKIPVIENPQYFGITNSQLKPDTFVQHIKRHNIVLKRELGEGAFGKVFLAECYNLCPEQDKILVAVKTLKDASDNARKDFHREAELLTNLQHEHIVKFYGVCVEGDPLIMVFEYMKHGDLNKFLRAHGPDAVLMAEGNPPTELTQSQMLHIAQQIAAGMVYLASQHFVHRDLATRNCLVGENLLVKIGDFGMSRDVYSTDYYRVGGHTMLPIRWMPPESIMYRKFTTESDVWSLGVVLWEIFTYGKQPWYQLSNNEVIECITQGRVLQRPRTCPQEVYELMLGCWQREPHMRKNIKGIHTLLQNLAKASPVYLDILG
Sequence of TRKB-wt (Q16620 538-807): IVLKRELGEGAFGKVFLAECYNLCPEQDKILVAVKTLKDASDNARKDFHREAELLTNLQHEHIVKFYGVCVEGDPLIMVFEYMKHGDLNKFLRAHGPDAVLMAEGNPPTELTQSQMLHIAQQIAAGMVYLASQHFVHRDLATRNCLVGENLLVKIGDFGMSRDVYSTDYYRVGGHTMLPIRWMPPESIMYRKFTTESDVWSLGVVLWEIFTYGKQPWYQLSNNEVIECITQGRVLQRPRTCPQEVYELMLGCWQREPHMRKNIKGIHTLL

Structure (SMILES): C[C@H]1Oc2cc(cnc2N)-c2c(c(C(N)=O)nn2CC2CC2)Cc2cccnc2-c2ccc(F)cc21 [Example 6, (R)-23-amino-3-(cyclopropylmethyl)-17-fluoro-20-methyl-21-oxa-3,4,12,24-tetraazapentacyclo[20.3.1.0^2,^6.0^8,^13.0^14,^19]hexacosa-1(25),2(6),4,8(13),9,11,14,16, 18,22(26),23-undecaene-5-carboxamide]
- IC50 [1]: 0.1 to 50 nM
- IC50 [2]: > 500 nM
- Ki [3]: 50 to 500 nM

Structure (SMILES): CCN(C)C(=O)c1nn(CC2CC2)c2c1Cc1cn(C)nc1-c1ccc(F)cc1[C@@H](C)Oc1cc-2cnc1N [Example 38, N-ethyl-N-methyl-(R)-22-amino-3-(cyclopropylmethyl)-16-fluoro-10-methyl-19-methyl-20-oxa-3,4,10,11,23-pentaazapentacyclo[19.3.1.0^2,^6.0^8,^12.0^13,^18]pentacosa-1(24),2(6),4,8,11,13,15,17,21(25),22-decaene-5-carboxamide]
- IC50 [1]: 0.1 to 50 nM
- IC50 [2]: > 500 nM
- IC50 [4]: 0.1 to 50 nM
- Ki [3]: 50 to 500 nM

Structure (SMILES): Cc1cc2n(n1)-c1c(F)cc(F)cc1[C@@H](C)Oc1cc(cnc1N)-c1c(c(C(=O)N(C)C)nn1CC1CC1)C2 [Example 44, N,N-dimethyl-(R)-22-amino-3-(cyclopropylmethyl)-14,16-difluoro-10,19-dimethyl-20-oxa-3,4,11,12,23-pentaazapentacyclo[19.3.1.0^2,^6.0^8,^12.0^13,^18]pentacosa-1(24),2(6),4,8, 10,13,15,17,21(25),22-decaene-5-carboxamide]
- IC50 [1]: 0.1 to 50 nM
- IC50 [2]: > 500 nM
- Ki [3]: 50 to 500 nM

Structure (SMILES): C[C@H]1Oc2cc(cnc2N)-c2c(n[nH]c2C#N)C(=O)c2cccnc2-c2c(F)cc(F)cc21 [Example 77, (R)-23-amino-15,17-difluoro-20-methyl-7-oxo-21-oxa-4,5,12,24-NH2 tetraazapentacyclo[20.3.1.0^2,6.0^8,13.0^14,19]hexacosa-1(25),2,5,8,10,12,14,16,18,22(26),23-undecaene-3-carbonitrile]
- IC50 [1]: 0.1 to 50 nM
- ETV6-TRKB / EML4-ALK v1 I1171N/D1203N [1]: A (bin A for very high selectivity, ratio≥30-fold)
- IC50 [2]: 50 to 500 nM
- IC50 [4]: 0.1 to 50 nM
- ETV6-TRKB / EML4-ALK v1 I1171N [4]: B (bin B for high selectivity, ratio≥10-fold but<30)

Structure (SMILES): C[C@H]1Oc2cc(cnc2N)-c2c(nn(C)c2C#N)C(=O)c2scnc2-c2c(F)cc(F)cc21 [Example 81, (R)-22-amino-14,16-difluoro-4-methyl-19-methyl-7-oxo-20-oxa-9-thia-4,5,11,23-tetraazapentacyclo[19.3.1.0^2,^6.0^8,^12.0^13,^18]pentacosa-1(24),2,5,8(12),10,13,15,17,21(25),22-decaene-3-carbonitrile]
- IC50 [1]: 0.1 to 50 nM
- ETV6-TRKB / EML4-ALK v1 I1171N/D1203N [1]: A (bin A for very high selectivity, ratio≥30-fold)
- IC50 [2]: > 500 nM
- IC50 [4]: 0.1 to 50 nM
- ETV6-TRKB / EML4-ALK v1 I1171N [4]: A (bin A for very high selectivity, ratio≥30-fold)

Structure (SMILES): C[C@H]1Oc2nc(cnc2N)-c2c(nn(C)c2C#N)C(=O)c2cccnc2-c2c(F)cc(F)cc21 [Example 82, (R)-23-amino-15,17-difluoro-4-methyl-20-methyl-7-oxo-21-oxa-4,5,12,24,26-pentaazapentacyclo[20.3.1.0^2,6.0^8,13.0^14,19]hexacosa-1(25),2,5,8(13),9,11,14,16,18,22(26),23-undecaene-3-carbonitrile]
- IC50 [1]: 0.1 to 50 nM
- ETV6-TRKB / EML4-ALK v1 I1171N/D1203N [1]: A (bin A for very high selectivity, ratio≥30-fold)
- IC50 [2]: 50 to 500 nM
- IC50 [4]: 0.1 to 50 nM
- ETV6-TRKB / EML4-ALK v1 I1171N [4]: C (bin C for moderate selectivity, ratio≥1 but<10)

— patent US20250326769A1, “HETEROAROMATIC MACROCYCLIC ETHER CHEMOTHERAPEUTIC AGENTS” (Nuvalent, Inc., priority 2022, published 2025)
